Data on two substances can be found in US5674837A, “Stable bleomycin sulfate solution suitable for injection” (Abbott Laboratories, priority 1994, dated 1997).

Where two headings read alike, the source gives them in different places.

One data set concerns Mycobacterium smegmatis. Description: Storage stability of bleomycin sulfate solutions, potency by microbial agar diffusion assay. It is filed as physicochemical. Also on record: first-order degradation rate constant k: unit not given here. The conditions noted are these: for % of Initial Drug Remaining (Potency): 3 U/mL in SWFI, RT. How it is done: As used herein, "stable" or "stabilizing" refers to the retention of potency of a bleomycin solution in the range of about 90-120% of its initial starting potency. Potency refers to the amount of antimicrobial activity of the bleomycin solution as determined by microbial assay and is expressed in units of activity. One unit of bleomycin is equivalent in activity to 1 mg of bleomycin A2 reference standard. A2 reference standards are well known to those of ordinary skill in the art and may be purchased from a variety of commercial suppliers. […] The assay is performed as follows:
ii. Plates for potency assay: The number of plates required per assay is dependent on the number of samples to be tested. For all tests, at least 12 plates are required to establish a standard response line (see "Standard Response Line Solutions" below) and at least 3 plates are required to determine the potency of each test sample. Plates for potency testing are prepared by evenly distributing a 10 mL base layer of melted Medium 35 to an appropriate number of plastic or glass Petri dishes (20 by 100 millimeters). The layer of base agar medium is poured into each plate on a flat level surface, and a cover placed on each plate in turn; if a nonporous cover is used, the cover is left slightly ajar to prevent accumulation of condensing moisture from the hot agar base layer. After the agar hardens, the nonporous cover is seated on each plate. To prepare the seed layer, an amount of test organism suspension (see "Test Organism Suspension" below) is added to a sufficient amount of Medium 35 (which has been melted and cooled to 48° C.-50° C.) to equal a ratio of 1 mL suspension for each 100 mL of medium. The flask is swirled to obtain a homogeneous suspension, and 6 mL of suspension then added to each of the plates containing the uninoculated base agar. The seed layer is spread evenly over the agar surface, covered and allowed to harden on a flat, level surface. After the agar has hardened, 6 cylinders (stainless steel with an outside diameter of 8 millimeters (±0.1 millimeter), an inside diameter of 6 millimeters (±0.1 millimeter), and a length of 10 millimeters (±0.1 millimeter)) are placed on the inoculated agar surface so that they are at approximately 60° intervals on a 2.8 centimeter radius.
c. Test Organism Suspension: Test organism, Mycobacterium smegmatis (Cat. #607 from the American Type Culture Collection, 12301 Parklawn Dr., Rockville, Md. 20852 ) is maintained on agar slants containing 10 mL of Medium 36 as described above and transferred to a fresh slant about once a week. Slants are Incubated at 37° C. for 48 hours immediately after transfer. To prepare the test organism suspension, 3 mL of sterile USP saline T.S., is used to wash the growth from the agar slant into a 500-mL Edenmeyer flask containing 100 mL of Medium 34 and 50 gm of glass beads. The culture is agitated by rotation at a speed of 130 cycles per minute and a radius of 3.5 centimeters at 37° C. for 5 days. The test organism suspension is stored under refrigeration for a period of up to 2 weeks.
ii. Working Standard Stock Solution: The working standard of bleomycin is prepared as follows: In an atmosphere of about 10 percent relative humidity, about 100 milligrams of a fine powder of the drug is transferred to a tared weighing bottle equipped with a ground-glass stopper. The bottle is weighed and placed in a vacuum oven, with the stopper tilted on its side so that there is no closure during the drying period. The drug is dried at a temperature of 25° C. and a pressure of 5 millimeters of mercury or less for 4 hours. At the end of the drying period, the vacuum oven is filled with air that has been dried by passing it through a drying agent such as sulfuric acid or silica gel. The stopper is replaced and the weighing bottle placed in a desiccator over a desiccating agent, such as phosphorous pentoxide or silica gel, allowed to cool to room temperature, and reweighed.
A general note: A growth-free zone around the sample is the usual read-out of agar diffusion tests.

For data set [1] the following is noted: cited from earlier work.
[2] abbreviates: 0.1M citrate buffer, 5° C., 3 mo.
Where [3] appears, read: 0.1M citrate buffer, 25° C., 2 mo.
The mark [4] stands for this setting: 0.1M citrate buffer, 25° C., 3 mo.
Where [5] appears, read: 0.1M citrate buffer, 40° C., 1 mo.
Where [6] appears, read: 0.1M citrate buffer, 40° C., 2 mo.
The mark [7] stands for this setting: 0.1M citrate buffer, 40° C., 3 mo.

As for bleomycin, in the data set on Mycobacterium smegmatis (solution in SWFI at RT, estimated from k), the “shelf-life t90% (time required to reach 90% of the initial potency)” value is roughly 3.44 months. For the same substance, the “first-order degradation rate constant k” value in the data set on Mycobacterium smegmatis (solution in SWFI at RT, from 24 month data) is reported as roughly 0.03058. Also, the “time stable, reconstituted solutions” value in data set [1] (2° C.-8° C.) was 4 weeks; in data set [1] (room temperature), 2 weeks. For the same substance, the “stability in ointment base” value in data set [1] (in dermabase or tincture of benzoin) is on record as “quite unstable”. For the same substance, the loss of activity in data set [1] (in petrolatum ointment base, in two years) is reported as 7%. In addition, in data set [1] (in saline (Dorr et al.)), the “time stable in solution” value was “up to seven”. In addition, the claimed stability time in data set [1] (multidose premix in sodium chloride, under refrigeration) was 100 days.
Turning to bleomycin sulfate, the “% Potency Remaining” value in the data set with Mycobacterium smegmatis (setting [2]) came out at 107.3%; with Mycobacterium smegmatis (setting [3]) it was 104.1%; in the data set on Mycobacterium smegmatis (setting [4]), 95.2%; in the data set with Mycobacterium smegmatis (setting [5]) it was 87.1%; in the data set on Mycobacterium smegmatis (setting [6]) it was 83.1%; in the data set with Mycobacterium smegmatis (setting [7]), 59.3%. Moreover, the “% Potency Remaining” value was 105.0% in the data set with Mycobacterium smegmatis (SWFI, 5° C., 3 mo.); 105.1% with Mycobacterium smegmatis (SWFI, 25° C., 2 mo.); 101.5% in the data set on Mycobacterium smegmatis (SWFI, 25° C., 3 mo.); 96.1% in the data set with Mycobacterium smegmatis (SWFI, 40° C., 1 mo.); 97.7% with Mycobacterium smegmatis (SWFI, 40° C., 2 mo.); 63.4% in the data set on Mycobacterium smegmatis (SWFI, 40° C., 3 mo.). The Potency was 16.51 units per vial in the data set on Mycobacterium smegmatis (setting [2]); 16.02 units per vial with Mycobacterium smegmatis (setting [3]); 14.65 units per vial in the data set on Mycobacterium smegmatis (setting [4]); 13.40 units per vial in the data set with Mycobacterium smegmatis (setting [5]); 12.79 units per vial in the data set with Mycobacterium smegmatis (setting [6]); 9.13 units per vial with Mycobacterium smegmatis (setting [7]). The Potency is given as 16.37 units per vial with Mycobacterium smegmatis (SWFI, 5° C., 3 mo.); 16.38 units per vial in the data set on Mycobacterium smegmatis (SWFI, 25° C., 2 mo.); 15.82 units per vial in the data set with Mycobacterium smegmatis (SWFI, 25° C., 3 mo.); 14.97 units per vial in the data set on Mycobacterium smegmatis (SWFI, 40° C., 1 mo.); 15.22 units per vial with Mycobacterium smegmatis (SWFI, 40° C., 2 mo.); 9.88 units per vial with Mycobacterium smegmatis (SWFI, 40° C., 3 mo.). For the same substance, the entries for the “starting concentration (initial potency)” value in the data set with Mycobacterium smegmatis (0.1M citrate buffer) and with Mycobacterium smegmatis (SWFI) were 15.39 units per vial and 15.58 units per vial, respectively. The “% of Initial Drug Remaining (Potency)” value in the data set with Mycobacterium smegmatis (0 months) worked out at 100.0%; with Mycobacterium smegmatis (24 months) it was 48.0%. This substance also showed a decrease of potency in the data set with Mycobacterium smegmatis (citrate buffer solution, 3 months storage at 40° C.) of roughly 40%. Further, the “decrease in stability” value in the data set on Mycobacterium smegmatis (citrate solutions, 25° C. and 5° C., 3 months storage) is given as “little if any, decrease in stability”.
